Test results from patent US11939308B2, “Biphenyl derivative compound and use thereof” (EWHA UNIVERSITY—INDUSTRY COLLABORATION FOUNDATION, priority 2018, dated 2024).

Columns and labels:
recombinant Nm23-H1 = recombinant Nm23-H1 (Homo sapiens, UniProt P15531); experiment: NDPK assay with recombinant Nm23-H1; format: biochemical; parameters: NDPK activity: unit not given here; details: for NDPK activity: 5 ng recombinant Nm23-H1, 10 min room temperature, then 5 μM ADP 1 min, compound concentration not given
Method: NDPK assay was performed by incubating 5 ng of recombinant Nm23-H1 with each of test compounds (Examples 1 to 3) in NDPK assay buffer (20 mM HEPES, 3 mM MgCl2) at room temperature for 10 minutes, followed by reaction with 5 μM ADP for 1 minute.

MDA-MB-231 cells [1] = experiment: Matrigel invasion assay; format: cell-based; details: Transwell with Matrigel, 24 hours at 37° C.
Method: Invasion assay was performed using a Transwell® unit (Corning, USA) with a polycarbonate membrane (pore size: 8 μm), with or without Matrigel coating. The membrane was coated with 50 μg Matrigel™-based membrane matrix (BD Bioscience, USA). 5×10^4 MDA-MB-231 cells were seeded into the upper chamber in a serum-free medium together with the compound of Example 1, and the lower chamber was filled with a medium containing 10% FBS. After incubation for 24 hours at 37° C., the cells on the upper side of the membrane were removed. The cells invading to the underside of the membrane were stained with 0.5% Crystal violet in 25% methanol and counted at 100-fold magnification under a microscope.

MDA-MB-231 cells [2] = experiment: Immunofluorescent staining assay (F-actin localization); format: cell-based; details: Rhodamine-Phalloidin staining, various times
Method: MDA-MB-231 cells were grown on the Secureslip™ (Sigma) cell culture glass cover slip to a confluence of 50 to 70%, and then treated with or without the compound of Example 1 (B038) for various times. The cells were gently washed with cold HBSS, and then fixed with 4% paraformaldehyde-containing HBSS […] for 10 minutes at room temperature. After washing with HBSS, permeabilization with 0.1% Triton X-100 was performed for 10 minutes at room temperature. After washing twice with HBSS, the cells were blocked with 3% BSA, 0.2% Tween20 and 0.2% gelatin in HBSS for 1 hour at room temperature, and incubated with primary antibody at 37° C. for 2 hours. F-actin was stained by Rhodamine-Phalloidin (Thermo Fisher Scientific) for 2 hours at 37° C., followed by washing 3 times with HBSS for 20 minutes. Coverslips were mounted with an anti-fading solution and viewed using an ×63 objective lens of an LSM510 META (Zeiss) laser scanning confocal microscope.

recombinant Nm23-H1, sequence (P15531 whole entry): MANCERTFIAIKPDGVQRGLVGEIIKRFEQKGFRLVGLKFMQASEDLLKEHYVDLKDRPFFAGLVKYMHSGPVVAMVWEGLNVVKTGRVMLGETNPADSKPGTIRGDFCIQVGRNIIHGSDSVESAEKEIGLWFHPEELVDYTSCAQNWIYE

**Q.** How did the NDPK activity (recombinant Nm23-H1) turn out when COc1ccc(CCc2ccccc2-c2ccc(OC)c(OC)c2)cc1O [Example 7, 5-(2-(3′,4′-dimethoxy-[1,1′-biphenyl]-2-yl)ethyl)-2-methoxyphenol] was run?
**A.** The NDPK activity was 3.5.

**Q.** For COc1ccc(-c2ccccc2CCc2ccc(OC)c(OC)c2)cc1O [Example 6, 2′-(3,4-dimethoxyphenethyl)-4-methoxy-[1,1′-biphenyl]-3-ol], which NDPK activity (recombinant Nm23-H1) is on record?
**A.** The NDPK activity was 1.9.

**Q.** For COc1cc(-c2ccccc2CCc2ccc(OC)c(OC)c2)ccc1O [Example 5, 2′-(3,4-dimethoxyphenethyl)-3-methoxy-[1,1′-biphenyl]-4-ol], which NDPK activity (recombinant Nm23-H1) is on record?
**A.** The NDPK activity was 4.

**Q.** For COc1cc(CCc2ccccc2-c2ccc(OC)c(OC)c2)ccc1O [Example 10, 4-(2-(3′,4′-dimethoxy-[1,1′-biphenyl]-2-yl)ethyl)-2-methoxyphenol], which NDPK activity (recombinant Nm23-H1) is on record?
**A.** Its NDPK activity is 2.6.

**Q.** With COc1ccc(C(=O)Nc2ccccc2-c2ccc(OC)c(OC)c2)cc1OC [Example 4, N-(3′,4′-dimethoxy-[1,1′-biphenyl]-2-yl)-3,4-dimethoxybenzamide] as the molecule, how does the NDPK activity (recombinant Nm23-H1) read?
**A.** The NDPK activity was 1.52.

**Q.** What does the source list for COc1ccc(CCc2ccccc2-c2ccc(OC)c(OC)c2)cc1OC [Example 1]?
**A.** NDPK activity (recombinant Nm23-H1): 6.55; NDPK activity-increasing effect at various concentrations (FIG. 1) (recombinant Nm23-H1; various concentrations): excellent effect of increasing NDPK activity even at low concentrations; cell invasion (counting invaded cells, FIGS. 2A and 2B) (MDA-MB-231 cells [1]): significantly suppressed cell invasion; localization of F-actin (ruffles, cell-to-cell contact; FIG. 3) (MDA-MB-231 cells [2]): ruffles decreased and cell-to-cell contact increased

**Q.** For COc1ccc(NC(=O)c2ccccc2-c2ccc(OC)c(OC)c2)cc1OC [Example 3, N-(3,4-dimethoxyphenyl)-3′,4′-dimethoxy-[1,1′-biphenyl]-2-carboxamide], which NDPK activity (recombinant Nm23-H1) is on record?
**A.** Its NDPK activity is 1.32.

**Q.** Which NDPK activity (recombinant Nm23-H1) does the source give for COc1ccc(-c2ccccc2C2OC2c2ccc(OC)c(OC)c2)cc1OC (centres unmarked) [Example 2, 2-(3′,4′-dimethoxy-[1,1′-biphenyl]-2-yl)-3-(3,4-dimethoxyphenyl)oxirane] here?
**A.** Its NDPK activity is 4.08.
